Target: Substance-P receptor (Homo sapiens, UniProt P25103)
Assay: Tested for the binding affinity against neurokinin NK1 receptor

Substance-P receptor, sequence (P25103 whole entry): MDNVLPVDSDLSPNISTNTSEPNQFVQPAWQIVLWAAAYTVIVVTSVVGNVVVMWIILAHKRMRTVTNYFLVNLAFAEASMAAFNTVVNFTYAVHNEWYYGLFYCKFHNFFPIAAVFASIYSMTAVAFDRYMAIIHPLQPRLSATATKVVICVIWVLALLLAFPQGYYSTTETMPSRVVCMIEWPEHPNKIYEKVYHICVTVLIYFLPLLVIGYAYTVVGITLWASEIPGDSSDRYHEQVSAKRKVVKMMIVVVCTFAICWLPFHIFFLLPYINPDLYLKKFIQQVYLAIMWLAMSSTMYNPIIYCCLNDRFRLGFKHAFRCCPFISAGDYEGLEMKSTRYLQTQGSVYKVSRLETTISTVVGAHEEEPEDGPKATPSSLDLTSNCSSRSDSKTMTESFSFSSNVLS

| SMILES | IC50 [nM] |
| --- | --- |
| Cc1cc(C)cc(/C(F)=C2/CC[C@@H](NC(=O)c3ccnc4ccccc34)C[C@@H]2Cc2ccccc2)c1 | > 10000 |
| Cc1cc(C)cc(/C(F)=C2/CC[C@H](NC(=O)c3ccnc4ccccc34)C[C@H]2Cc2ccccc2)c1 | 380 |
| Cc1cc(C)cc(/C(F)=C2\CC[C@H](NC(=O)c3ccnc4ccccc34)C[C@H]2Cc2ccccc2)c1 | > 10000 |
| Cc1cc(C)cc(/C(F)=C2\CCC(NC(=O)c3ccnc4ccccc34)CC2Cc2ccccc2)c1 (racemic) | 620 |
| Cc1cc(C)cc(/C(F)=C2/CCC(NC(=O)c3ccnc4ccccc34)CC2Cc2ccccc2)c1 (racemic) | 710 |

Now those with a lower IC50, led by results:

| IC50 [nM] | SMILES |
| --- | --- |
| 270 | Cc1cc(C)cc(/C(F)=C2\CC[C@@H](NC(=O)c3ccnc4ccccc34)C[C@@H]2Cc2ccccc2)c1 |
| 15 | Cc1cc(C)cc(C(=O)N2CC[C@H](NC(=O)c3ccnc4ccccc34)C[C@H]2Cc2ccccc2)c1 |

Source: ChEMBL document CHEMBL1130293, “Studies on the active conformation of the NK1 antagonist CGP 49823. Part 21. Fluoro-olefin analogs of tertiary amide rotamers” (Bioorg Med Chem Lett, 1997)
